Data taken from PMC2833169, “Anti-malarial activity of a non-piperidine library of next-generation quinoline methanols” (Malaria Journal, 2010).
≈ marks a conversion by molar mass, not a printed value. Read-outs that look alike come from different tables or passages of the source.

Assays:
P. falciparum strain D6 = experiment: labeled hypoxanthine susceptibility assay, P. falciparum D6; assay type: cell-based, Plasmodium falciparum; conditions: for IC90: Plasmodium falciparum
Description: (§1) The in vitro activities of quinoline methanols against P. falciparum strains W2, D6, TM91C235, and TM90C2A were evaluated using the traditional labeled hypoxanthine assay of Desjardins et al as modified by Milhous et al. These four P. falciparum strains were selected since they have various levels of resistance to conventional anti-malarials.

[1] = tested on: P. falciparum strain TM90C2A; experiment: labeled hypoxanthine susceptibility assay, P. falciparum TM90C2A; assay type: cell-based, Plasmodium falciparum; conditions: for IC90: Plasmodium falciparum, TM90C2A; for CSI (C2A/W2): ratio of IC90 C2A to IC90 W2
Description: as §1

in vitro = conditions: mouse
Description: (§2) General cytotoxicity was assessed by first determining LC50 's against a rodent macrophage (RAW) cell line using the 3-(4,5-dimethylthiazole-2-yl)-2,5-diphenyltetrazolium bromide (MTT) assay as described in one of our earlier studies. This screen was conducted to identify compounds that may require de-selection due to generalized toxicity. […] In vitro neurocytotoxicity was assessed by determining LC50s against primary mouse neurons using the MTT assay as described previously. Inhibition of the A2A and A1 receptors was determined at 200 nM in duplicate by Caliper Biosciences (Hanover, Maryland).

A2A receptor = target: T1, A2A receptor (Homo sapiens, UniProt P29274); experiment: inhibition of the A2A receptor at 200 nM; assay type: binding; conditions: 200 nM, duplicate; read-out: % A2A inhibition at 200 nM
T1 construct: Caliper Biosciences (contract screen)
T1 sequence (P29274 whole entry): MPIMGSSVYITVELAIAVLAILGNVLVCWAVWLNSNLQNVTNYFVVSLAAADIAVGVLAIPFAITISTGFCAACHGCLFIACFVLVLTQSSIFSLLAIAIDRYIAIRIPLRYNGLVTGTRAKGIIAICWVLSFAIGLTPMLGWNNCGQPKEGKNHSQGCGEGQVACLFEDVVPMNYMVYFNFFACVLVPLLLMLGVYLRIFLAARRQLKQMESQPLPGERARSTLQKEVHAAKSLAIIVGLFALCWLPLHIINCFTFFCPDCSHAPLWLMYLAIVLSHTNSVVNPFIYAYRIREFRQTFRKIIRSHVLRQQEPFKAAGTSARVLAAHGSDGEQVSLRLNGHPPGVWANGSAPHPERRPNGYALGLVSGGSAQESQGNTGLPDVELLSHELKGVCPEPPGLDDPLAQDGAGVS
Description: as §2

A1 receptor = target: T2, A1 receptor (Homo sapiens, UniProt P30542); experiment: inhibition of the A1 receptor at 200 nM; assay type: binding; conditions: duplicate
T2 construct: Caliper Biosciences (contract screen)
T2 sequence (P30542 1-326): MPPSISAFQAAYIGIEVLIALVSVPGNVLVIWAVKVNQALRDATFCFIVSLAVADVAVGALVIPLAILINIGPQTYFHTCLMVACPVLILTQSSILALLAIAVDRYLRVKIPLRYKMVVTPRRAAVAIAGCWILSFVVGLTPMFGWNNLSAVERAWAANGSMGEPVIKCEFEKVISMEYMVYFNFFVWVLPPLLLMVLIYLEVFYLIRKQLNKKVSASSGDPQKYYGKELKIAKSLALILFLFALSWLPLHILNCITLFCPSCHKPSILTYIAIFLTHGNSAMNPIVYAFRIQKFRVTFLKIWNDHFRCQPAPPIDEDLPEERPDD
Description: as §2

[2] = metabolic stability in mouse liver microsomes; assay type: in vitro ADME; conditions: for half-life at 1 μM: pH 7.4, mouse liver microsomes, read-out: Half-life in mouse micro
Description: (§3) Interesting compounds were also submitted for drug-drug interaction and metabolic stability assays. Low IC50s against specific cytochrome P450 isoforms may indicate the potential for a harmful drug interaction to occur in vivo with substrates of that isoform. A lack of metabolic stability in vitro may indicate potential metabolic instability in vivo, and, therefore, a shorter half-life. Drug interaction potential was evaluated in vitro using BD Gentest (Franklin Lakes, NJ) CYP450 inhibition kits as recommended by the manufacturer. Metabolic stability assessments were conducted using in vitro liver microsomes. […] The reaction is started with the addition of 1 U/mL glucose-6-phosphate dehydrogenase G6PD. The mixture is incubated on a shaking platform at 37°C, and aliquots are taken and quenched with the addition of an equal volume of cold acetonitrile at 0, 10, 20, 30, and 60 min. Samples are centrifuged at 3700 rpm for […] at 20°C to remove debris. Sample quantification is carried out by LC/MS, and metabolic half-life is calculated by log plots of the total ion chromatograph area remaining.

CYP450 1A2 = target: T3, CYP450 1A2 (Homo sapiens, UniProt P05177); experiment: CYP450 inhibition kit (drug-drug interaction), 1A2; assay type: biochemical
T3 construct: purchased BD Gentest (Franklin Lakes, NJ)
T3 sequence (P05177 1-516): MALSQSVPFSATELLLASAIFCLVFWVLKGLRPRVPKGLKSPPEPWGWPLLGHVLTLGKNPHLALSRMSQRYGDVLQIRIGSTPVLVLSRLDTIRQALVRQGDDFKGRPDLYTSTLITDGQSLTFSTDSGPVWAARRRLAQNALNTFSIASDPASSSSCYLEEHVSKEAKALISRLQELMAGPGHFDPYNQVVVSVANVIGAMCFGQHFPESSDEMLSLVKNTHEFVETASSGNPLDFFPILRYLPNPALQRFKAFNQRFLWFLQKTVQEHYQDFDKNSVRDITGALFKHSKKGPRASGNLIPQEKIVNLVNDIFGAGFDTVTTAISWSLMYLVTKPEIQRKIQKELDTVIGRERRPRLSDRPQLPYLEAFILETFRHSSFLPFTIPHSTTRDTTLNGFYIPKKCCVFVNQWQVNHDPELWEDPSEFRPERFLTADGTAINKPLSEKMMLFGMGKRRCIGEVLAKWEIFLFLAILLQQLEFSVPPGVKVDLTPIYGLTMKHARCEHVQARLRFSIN
Description: as §3, with “Low” for “Interesting compounds were also submitted for drug-drug interaction and metabolic stability assays. Low”

CYP450 3A4 = target: T4, CYP450 3A4 (Homo sapiens, UniProt P08684); experiment: CYP450 inhibition kit (drug-drug interaction), 3A4; assay type: biochemical
T4 construct: purchased BD Gentest (Franklin Lakes, NJ)
T4 sequence (P08684 whole entry): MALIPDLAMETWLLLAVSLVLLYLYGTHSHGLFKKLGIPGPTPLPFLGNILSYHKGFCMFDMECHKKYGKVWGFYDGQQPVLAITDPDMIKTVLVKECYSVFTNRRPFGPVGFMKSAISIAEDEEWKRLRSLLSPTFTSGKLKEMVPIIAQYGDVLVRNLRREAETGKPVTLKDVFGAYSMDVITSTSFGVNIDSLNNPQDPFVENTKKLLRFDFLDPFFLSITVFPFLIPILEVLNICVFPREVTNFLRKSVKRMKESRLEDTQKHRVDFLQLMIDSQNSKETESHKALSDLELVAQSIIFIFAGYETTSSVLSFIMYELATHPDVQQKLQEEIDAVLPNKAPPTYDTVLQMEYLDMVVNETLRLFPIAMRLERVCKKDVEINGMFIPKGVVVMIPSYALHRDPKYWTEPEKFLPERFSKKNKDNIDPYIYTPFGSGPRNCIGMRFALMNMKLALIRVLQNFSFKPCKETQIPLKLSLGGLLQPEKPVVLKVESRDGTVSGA
Description: as §3, with “Low” for “Interesting compounds were also submitted for drug-drug interaction and metabolic stability assays. Low”

[3] = D6, read-out: IC90 Pf D6, P. falciparum D6, mefloquine: historical mean +/- SD (n)
[4] = D6, read-out: PF D6 IC90, P. falciparum D6
[5] = read-out: Pf C2A IC90 nM values calculated using MW in Column C

SMILES: CC(C)NCC(O)c1cc(C(F)(F)F)nc2c(C(F)(F)F)cccc12 (stereo not drawn) [WR308257]
- IC90 (P. falciparum strain D6; [3]): 0.023 µg/mL (≈ 0.0628 µM)
- IC90 (P. falciparum strain D6; [4]): 0.0232 µg/mL (≈ 0.0634 µM)
- IC90 ([1]; read-out: IC90 Pf C2A): 0.039 µg/mL
- IC90 ([1]; read-out: IC90 PfC2A): 107 nM
- IC90 ([1]; read-out: PF C2A IC90): 0.0392 µg/mL
- IC90 [1, 5]: 107 nM
- CSI (C2A/W2) [1]: 8.4
- CC50 (in vitro): > 120000 nM
- inhibition at 0.2 µM (A2A receptor): 17%
- inhibition at 0.2 µM (A1 receptor): 79%
- half-life at 1 μM [2]: > 1 h
- IC50 (CYP450 1A2): 3900 nM
- IC50 (CYP450 3A4): > 40000 nM

SMILES: OC(CNCCNCc1ccccc1)c1cc(C(F)(F)F)nc2c(C(F)(F)F)cccc12 (stereo not drawn) [WR308396]
- IC90 Pf D6 (P. falciparum strain D6; P. falciparum D6, mefloquine: historical mean +/- SD (n)): 0.029 µg/mL (≈ 0.0634 µM)
- IC90 (P. falciparum strain D6; [3]): 0.03 µg/mL (≈ 0.0656 µM)
- IC90 (P. falciparum strain D6; [4]): 0.0293 µg/mL (≈ 0.0639 µM)
- IC90 ([1]; read-out: IC90 Pf C2A): 0.048 µg/mL
- IC90 ([1]; read-out: IC90 PfC2A): 105 nM
- IC90 ([1]; read-out: PF C2A IC90): 0.048 µg/mL
- IC90 [1, 5]: 105 nM
- CSI (C2A/W2) [1]: 7.7
- CC50 (in vitro): 52000 nM
- inhibition at 0.2 µM (A2A receptor): 0%
- inhibition at 0.2 µM (A1 receptor): 2.9%
- HL in Microsomes ([2]; Figure 3, species of microsomes not given): > 60 min
- half-life at 1 μM [2]: > 1 h
- IC50 (CYP450 1A2): 5400 nM
- IC50 (CYP450 3A4): 3300 nM

SMILES: CNCC(O)c1cc(C(F)(F)F)nc2c(C(F)(F)F)cccc12 (stereo not drawn) [WR308245]
- IC90 (P. falciparum strain D6; [3]): 0.045 µg/mL (≈ 0.133 µM)
- IC90 (P. falciparum strain D6; [4]): 0.0452 µg/mL (≈ 0.134 µM)
- IC90 ([1]; read-out: IC90 Pf C2A): 0.08 µg/mL
- IC90 ([1]; read-out: IC90 PfC2A): 236 nM
- IC90 ([1]; read-out: PF C2A IC90): 0.0798 µg/mL
- IC90 [1, 5]: 236 nM
- CSI (C2A/W2) [1]: 4.8
- CC50 (in vitro): > 120000 nM
- inhibition at 0.2 µM (A2A receptor): 0%
- inhibition at 0.2 µM (A1 receptor): 0%
- half-life at 1 μM [2]: > 1 h
- IC50 (CYP450 1A2): 1800 nM
- IC50 (CYP450 3A4): 26000 nM

SMILES: CSCCCNCC(O)c1cc(C(F)(F)F)nc2c(C(F)(F)F)cccc12 (stereo not drawn) [WR308278]
- IC90 (P. falciparum strain D6; [3]): 0.036 µg/mL (≈ 0.0873 µM)
- IC90 (P. falciparum strain D6; [4]): 0.0363 µg/mL (≈ 0.0881 µM)
- IC90 ([1]; read-out: IC90 Pf C2A): 0.054 µg/mL
- IC90 ([1]; read-out: IC90 PfC2A): 132 nM
- IC90 ([1]; read-out: PF C2A IC90): 0.0544 µg/mL
- IC90 [1, 5]: 132 nM
- CSI (C2A/W2) [1]: 5.6
- CC50 (in vitro): > 120000 nM
- inhibition at 0.2 µM (A2A receptor): 1%
- inhibition at 0.2 µM (A1 receptor): 9.4%
- half-life at 1 μM [2]: 0.167 h
- IC50 (CYP450 1A2): 3500 nM
- IC50 (CYP450 3A4): 16000 nM
